The subject of data set [1] is mice with acute hyperuricemia. Description: In vivo activity of reducing serum uric acid (acute hyperuricemia induced with xanthine and potassium oxonate). The conditions noted are these: for BUA (blood uric acid concentration): hyperuricemic Kunming mice; for anti-gout activity, compared with positive control benzbromarone: batch 1, conclusion from Table 2. On the set-up: species or system Kunming mice. How it is done: All newly synthesized target compounds were primarily evaluated for their activities of reducing blood uric acid in vivo (mice). Benzbromarone and lesinurad were selected as positive control drugs.
Example 46. In Vivo Activity of Reducing Serum Uric Acid
• (1) Experimental animal: Kunming mice, provided by Experimental Animal Center of Shandong University • (2) Preparation of compounds: Compounds were dissolved in ethanol and CMC-Na. • (3) Modeling drugs: Xanthine and potassium oxonate • (4) Reference drugs: Benzbromarone and Lesinurad • (5) Test method: The model group consisted of mice with acute hyperuricemia induced with 0.2 mL xanthine intragastric injection and 0.2 mL potassium oxonate subcutaneous injection, and not treated with test compound.

Where [2] appears, read: batch 2, Model 576.5 ± 120.5, Blank 262 ± 43.6, Blank (CMC-Na) 286 ± 90.9.
[3] abbreviates: batch 1, Model 1462.6 ± 194.3, Blank 377.2 ± 27.6.

Molecules are shown by their SMILES.

For `CCOC(=O)C(C)(C)Sc1nc2ncccc2n1-c1ccc(C2CC2)c2ccccc12` [Compound T4], the “BUA (blood uric acid concentration)” value in data set [1] (setting [2]) is 306 ± 46.8 µM.

Consider `O=C(O)CCCSc1nc2cccnc2n1-c1cccc2ccccc12` [Compound M6], for which the “BUA (blood uric acid concentration)” value in data set [1] (setting [3]) turned out to be 1342 ± 144.3 µM.

Turning to `CCOC(=O)C(C)(C)Sc1nc2cccnc2n1-c1c(C)cc(C)cc1C` [Compound X4], in data set [1], the “anti-gout activity, compared with positive control benzbromarone” value is given as “significant anti-gout activity”. In data set [1] (setting [3]), the “BUA (blood uric acid concentration)” value was 689.2 ± 53.4 µM.

As to `CC(C)(Sc1nc2cccnc2n1-c1ccc(C2CC2)c2ccccc12)C(=O)O` [Compound Q8], the “BUA (blood uric acid concentration)” value in data set [1] (setting [3]) turned out to be 1448 ± 216.7 µM.

In the case of `CCOC(=O)CCCSc1nc2cccnc2n1-c1ccc(C2CC2)c2ccccc12` [Compound Q2], the “BUA (blood uric acid concentration)” value in data set [1] (setting [3]) came to 1422.6 ± 194.4 µM.

As for `CCOC(=O)CCCSc1nc2ncccc2n1-c1ccc(C2CC2)c2ccccc12` [Compound T2], the “BUA (blood uric acid concentration)” value in data set [1] (setting [2]) worked out at 334 ± 65.7 µM.

In the case of `CCOC(=O)C(C)(C)Sc1nc2cccnc2n1-c1cccc2ccccc12` [Compound M4], in data set [1] (setting [3]), the “BUA (blood uric acid concentration)” value worked out at 1363 ± 184.7 µM.

On to `Cc1cc(C)c(-n2c(SC(C)(C)C(=O)O)nc3cccnc32)c(C)c1` [Compound X8], for which the “BUA (blood uric acid concentration)” value in data set [1] (setting [3]) is 1288 ± 211.5 µM.

Take `CC(Sc1nc2ncccc2n1-c1ccc(C2CC2)c2ccccc12)C(=O)O` (centres unmarked) [Compound T7]: in data set [1] (setting [2]), the “BUA (blood uric acid concentration)” value turned out to be 189.7 ± 67.8 µM.

As for `CCOC(=O)CCCSc1nc2cccnc2n1-c1c(C)cc(C)cc1C` [Compound X2], the “BUA (blood uric acid concentration)” value in data set [1] (setting [3]) turned out to be 1107.7 ± 195.1 µM.

As for `O=C(O)CSc1nc2cccnc2n1-c1ccc(C2CC2)c2ccccc12` [Compound Q5], the “BUA (blood uric acid concentration)” value in data set [1] (setting [3]) turned out to be 824 ± 109.9 µM.

Turning to `CC(Sc1nc2cccnc2n1-c1cccc2ccccc12)C(=O)O` (centres unmarked) [Compound M7], in data set [1] (setting [3]), the “BUA (blood uric acid concentration)” value was found to be 1307.2 ± 133.1 µM.

`CCOC(=O)CCCSc1nc2cccnc2n1-c1cccc2ccccc12` [Compound M2]: the “anti-gout activity, compared with positive control benzbromarone” value in data set [1] was “significant anti-gout activity”. Also, the “BUA (blood uric acid concentration)” value in data set [1] (setting [3]) worked out at 634.7 ± 97.7 µM.

Consider `CCOC(=O)CSc1nc2cccnc2n1-c1c(C)cc(C)cc1C` [Compound X1], for which the “BUA (blood uric acid concentration)” value in data set [1] (setting [3]) amounted to 1255.2 ± 184 µM.

For `CCOC(=O)CSc1nc2ncccc2n1-c1ccc(C2CC2)c2ccccc12` [Compound T1], the “BUA (blood uric acid concentration)” value in data set [1] (setting [2]) was determined as 353.5 ± 35.6 µM.

Take `CCOC(=O)C(C)Sc1nc2ncccc2n1-c1ccc(C2CC2)c2ccccc12` (centres unmarked) [Compound T3]: in data set [1] (setting [2]), the “BUA (blood uric acid concentration)” value stood at 339 ± 29.8 µM.

In the case of `CCOC(=O)C(C)Sc1nc2cccnc2n1-c1c(C)cc(C)cc1C` (centres unmarked) [Compound X3], the “BUA (blood uric acid concentration)” value in data set [1] (setting [3]) was 983.2 ± 122.6 µM.

On to `O=C(O)CSc1nc2ncccc2n1-c1ccc(C2CC2)c2ccccc12` [Compound T5], for which, in data set [1] (setting [2]), the “BUA (blood uric acid concentration)” value is 342 ± 44.1 µM.

As to `O=C(O)CCCSc1nc2ncccc2n1-c1ccc(C2CC2)c2ccccc12` [Compound T6], the “BUA (blood uric acid concentration)” value in data set [1] (setting [2]) worked out at 330 ± 29.1 µM.

Molecule `CCOC(=O)CSc1nc2cccnc2n1-c1cccc2ccccc12` [Compound M1] gave a melting point of 116.5 to 117 °C. In data set [1] (setting [3]), the “BUA (blood uric acid concentration)” value is 1507.6 ± 229.2 µM.

For the molecule `O=C(O)CSc1nnc(Br)n1-c1ccc(C2CC2)c2ccccc12` [RDEA594, Lesinurad, reference compound], the “BUA (blood uric acid concentration)” value in data set [1] (setting [2]) was 409.5 ± 124.3 µM.

`Cc1cc(C)c(-n2c(SC(C)C(=O)O)nc3cccnc32)c(C)c1` (centres unmarked) [Compound X7]: in data set [1], the “anti-gout activity, compared with positive control benzbromarone” value is “significant anti-gout activity”. For the same molecule, the “BUA (blood uric acid concentration)” value in data set [1] (setting [3]) turned out to be 727.2 ± 150.7 µM.

Take `CCOC(=O)C(C)Sc1nc2cccnc2n1-c1ccc(C2CC2)c2ccccc12` (centres unmarked) [Compound Q3]: the “anti-gout activity, compared with positive control benzbromarone” value in data set [1] is reported as “significant anti-gout activity”. Further, in data set [1] (setting [3]), the “BUA (blood uric acid concentration)” value turned out to be 672 ± 76.2 µM.

Consider `CCOC(=O)C(C)Sc1nc2cccnc2n1-c1cccc2ccccc12` (centres unmarked) [Compound M3], for which the “BUA (blood uric acid concentration)” value in data set [1] (setting [3]) turned out to be 1321.5 ± 183.5 µM.

`O=C(O)CCCSc1nc2cccnc2n1-c1ccc(C2CC2)c2ccccc12` [Compound Q6]: the “BUA (blood uric acid concentration)” value in data set [1] (setting [3]) worked out at 1490.7 ± 269.9 µM.

With `CC(Sc1nc2cccnc2n1-c1ccc(C2CC2)c2ccccc12)C(=O)O` (centres unmarked) [Compound Q7], the “BUA (blood uric acid concentration)” value in data set [1] (setting [3]) turned out to be 763.2 ± 248.7 µM.

As to `CCOC(=O)C(C)(C)Sc1nc2cccnc2n1-c1ccc(C2CC2)c2ccccc12` [Compound Q4], in data set [1] (setting [3]), the “BUA (blood uric acid concentration)” value was 1328.2 ± 163.8 µM.

For the molecule `Cc1cc(C)c(-n2c(SCCCC(=O)O)nc3cccnc32)c(C)c1` [Compound X6], in data set [1], the “anti-gout activity, compared with positive control benzbromarone” value is given as “significant anti-gout activity”. Besides, the “BUA (blood uric acid concentration)” value in data set [1] (setting [3]) was determined as 655.2 ± 210.8 µM.

Regarding `CC(C)(Sc1nc2ncccc2n1-c1ccc(C2CC2)c2ccccc12)C(=O)O` [Compound T8], the “BUA (blood uric acid concentration)” value in data set [1] (setting [2]) was found to be 295.2 ± 54 µM.

Consider `CC(C)(Sc1nc2cccnc2n1-c1cccc2ccccc12)C(=O)O` [Compound M8], for which the “BUA (blood uric acid concentration)” value in data set [1] (setting [3]) was 1229 ± 150.2 µM.

With `CCc1oc2ccccc2c1C(=O)c1cc(Br)c(O)c(Br)c1` [Benzbromarone, reference compound], the “BUA (blood uric acid concentration)” value in data set [1] (setting [3]) came to 762.5 ± 30.3 µM.

In the case of `O=C(O)CSc1nc2cccnc2n1-c1cccc2ccccc12` [Compound M5], the melting point is 129 to 130 °C. Also, the “BUA (blood uric acid concentration)” value in data set [1] (setting [3]) worked out at 1307.5 ± 195.3 µM.

On to `Cc1cc(C)c(-n2c(SCC(=O)O)nc3cccnc32)c(C)c1` [Compound X5], for which the “BUA (blood uric acid concentration)” value in data set [1] (setting [3]) came out at 1310.2 ± 155.8 µM.

`CCOC(=O)CSc1nc2cccnc2n1-c1ccc(C2CC2)c2ccccc12` [Compound Q1]: the “BUA (blood uric acid concentration)” value in data set [1] (setting [3]) was 1344.75 ± 287.5 µM.

(Values after US10399978B2, “Imidazopyridine thioglycolic acid derivatives as potent inhibitors of human urate transporter 1” (SHANDONG UNIVERSITY, priority 2016, dated 2019).)
